One assay relates to Vrg4 wild type (WT). Also on record: method as in PMID 29143814. The conditions noted are these: WT Vrg4 in yeast polar lipid liposomes, 0.5 mM GMP inside, 3H-GMP uptake, cold competitor outside, 3 min; WT data published previously ref 10; cited from earlier work.
Another assay addresses T1, Vrg4 N221A variant (Saccharomyces cerevisiae, UniProt P40107, N221A).
T1 construct: GFP (cleaved yes); made in house; host or cells: S. cerevisiae strain BJ5460
Description: IC50 competition of 3H-GMP uptake into proteoliposomes, N221A variant. The assay is classed as biochemical. On the procedure: (§1) Vrg4 was reconstituted into liposomes made from yeast polar lipids using the dilution method into preformed lipid vesicles. Chloroform was removed from yeast polar lipids (Avanti polar lipids) through the use of a rotary evaporator to obtain a thin film. The lipids were washed twice in pentane and then resuspended at 5 mg ml^−1 in lipid buffer (20 mM HEPES pH 7.5, 100 mM KCl). These lipid vesicles were frozen and thawed twice in liquid nitrogen and stored at −80 °C until required. For reconstitution, the lipids were thawed and then extruded first through a 0.8-μm filter and then through a 0.4-μm filter. Purified Vrg4 in DM (at 0.5 μg μl^−1 concentration) was added to the lipids at a final lipid:protein ratio of 80:1 and incubated for 1 h at room temperature, then for a further 1 h on ice; for the no-protein liposome control, the same volume of gel filtration buffer containing 0.3% DM was added. […] The amount of protein (both wild-type and mutant variants) reconstituted into the lipids was quantified by SDS–PAGE and densitometry.
(§2) To analyse transport activity, proteoliposomes were thawed and the desired concentration of internal substrate was added (typically 0.5 mM for mutant variant analysis). […] The amount of GMP transported inside the liposomes was calculated by scintillation counting in Ultima Gold (Perkin Elmer) […]

The target in a further assay is T2, Vrg4 N220A variant (Saccharomyces cerevisiae, UniProt P40107, N220A).
T2 construct: GFP (cleaved yes); made in house; host or cells: S. cerevisiae strain BJ5460
T2 sequence (P40107 whole entry N220A): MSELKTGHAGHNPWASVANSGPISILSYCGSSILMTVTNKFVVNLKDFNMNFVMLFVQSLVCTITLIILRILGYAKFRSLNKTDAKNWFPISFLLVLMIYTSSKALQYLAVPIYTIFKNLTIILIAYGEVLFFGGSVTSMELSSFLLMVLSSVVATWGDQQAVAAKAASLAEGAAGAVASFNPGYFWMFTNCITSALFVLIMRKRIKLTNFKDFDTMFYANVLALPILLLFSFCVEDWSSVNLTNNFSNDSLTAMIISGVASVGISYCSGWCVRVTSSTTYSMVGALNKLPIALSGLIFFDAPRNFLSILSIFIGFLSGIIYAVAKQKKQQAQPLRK
Briefly: IC50 competition of 3H-GMP uptake into proteoliposomes, N220A variant. Format: biochemical. On the procedure:
as §1, §2

Assay [1] has as its target T3, Vrg4 (Saccharomyces cerevisiae, UniProt P40107).
T3 construct: GFP (cleaved yes); made in house; host or cells: S. cerevisiae strain BJ5460
T3 sequence (P40107 1-337): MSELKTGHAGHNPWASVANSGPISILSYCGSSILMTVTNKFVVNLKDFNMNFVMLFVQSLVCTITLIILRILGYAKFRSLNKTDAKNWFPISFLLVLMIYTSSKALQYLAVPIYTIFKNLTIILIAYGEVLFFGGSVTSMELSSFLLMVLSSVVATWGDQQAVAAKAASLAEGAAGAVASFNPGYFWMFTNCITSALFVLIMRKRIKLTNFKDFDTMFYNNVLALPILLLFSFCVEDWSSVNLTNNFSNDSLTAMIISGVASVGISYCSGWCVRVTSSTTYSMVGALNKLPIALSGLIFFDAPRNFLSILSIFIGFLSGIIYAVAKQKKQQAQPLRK
Briefly: Liposome-based transport rates under different antiport conditions. Format: biochemical. The conditions noted are these: 22 °C, rank among antiport conditions. On the procedure:
as §1, §2

For assay [2], the target named is T4, Vrg4 K118A variant (Saccharomyces cerevisiae, UniProt P40107, K118A).
T4 construct: GFP (cleaved yes); made in house; host or cells: S. cerevisiae strain BJ5460
Description: Thermal stability in the presence of ligand, K118A variant. Format: binding. The conditions noted are these: 1 mM GMP. On the procedure:
(§3) Thermal stability of protein samples was analysed using a Prometheus NT.48 (NanoTemper Technologies)[39]. The proteins were diluted to a final concentration of 0.7 mg ml^−1 into buffer containing 20 mM Hepes, pH 7.5, 50 mM KCl, 2 mM magnesium sulphate and 0.03% (w/v) DDM or 0.3% DM. Thermal measurements were carried out in a range from 20 to 95 °C with 1 °C per min steps. The resulting melting curves were generated by plotting the first derivative of the fluorescence ratio at 330 nm/350 nm (excitation 280 nm) against temperature. For stability in the presence of ligand (GMP) the ligand was added to the sample at a final concentration of 0.5 mM and the sample was incubated at room temperature for 5 min prior to analysis. For the sample in liposomes, reconstituted Vrg4, at a protein concentration of 0.4 mg ml^−1, in yeast polar lipids were prepared in 20 mM Hepes, pH 7.5, 50 mM KCl, 2 mM magnesium sulphate and extruded through a 0.4 μm membrane prior to analysis. For the solubilised liposome sample, liposomes were solubilised in 1.5% DDM for one hour and centrifuged at 100,000 × g for 30 min prior to analysis.

In a further assay the target is T5, Vrg4 S269A variant (Saccharomyces cerevisiae, UniProt P40107, S269A).
T5 construct: GFP (cleaved yes); made in house; host or cells: S. cerevisiae strain BJ5460
T5 sequence (P40107 whole entry S269A): as the sequence (P40107 whole entry N220A) above, with A220N, S269A counted along it
Briefly: IC50 competition of 3H-GMP uptake into proteoliposomes, S269A variant. Format: biochemical. The conditions noted are these: S269A variant (removal of S269); in words. On the procedure: as §1, §2

Another assay deals with T6, Vrg4 Y281A variant (Saccharomyces cerevisiae, UniProt P40107, Y281A).
T6 construct: GFP (cleaved yes); made in house; host or cells: S. cerevisiae strain BJ5460
T6 sequence (P40107 whole entry Y281A): as the sequence (P40107 whole entry N220A) above, with A220N, Y281A counted along it
Description: Thermal stability in the presence of ligand, Y281A variant. Format: binding. As to conditions: 1 mM GMP, N=3. The method, then:
as §3

In a further assay the target is T7, Vrg4 Y281F variant (Saccharomyces cerevisiae, UniProt P40107, Y281F).
T7 construct: GFP (cleaved yes); made in house; host or cells: S. cerevisiae strain BJ5460
T7 sequence (P40107 whole entry Y281F): as the sequence (P40107 whole entry N220A) above, with A220N, Y281F counted along it
Description: IC50 competition of 3H-GMP uptake into proteoliposomes, Y281F variant. Format: biochemical. On the procedure:
as §1, §2

A further assay has as its target T8, Vrg4 S266A variant (Saccharomyces cerevisiae, UniProt P40107, S266A).
T8 construct: GFP (cleaved yes); made in house; host or cells: S. cerevisiae strain BJ5460
Description: IC50 competition of 3H-GMP uptake into proteoliposomes, S266A variant. As to conditions: in words. Format: biochemical. The method, then: as §1, §2

Assay [3] addresses T3, Vrg4. Also on record: method as in PMID 29143814. As to conditions: GDP-mannose:GMP compared with GMP:GMP in liposome-based assays ref 10; cited from earlier work.
Assay [4] concerns the target T9, Vrg4 K118A variant (Saccharomyces cerevisiae, UniProt P40107 1-337, K118A).
T9 sequence: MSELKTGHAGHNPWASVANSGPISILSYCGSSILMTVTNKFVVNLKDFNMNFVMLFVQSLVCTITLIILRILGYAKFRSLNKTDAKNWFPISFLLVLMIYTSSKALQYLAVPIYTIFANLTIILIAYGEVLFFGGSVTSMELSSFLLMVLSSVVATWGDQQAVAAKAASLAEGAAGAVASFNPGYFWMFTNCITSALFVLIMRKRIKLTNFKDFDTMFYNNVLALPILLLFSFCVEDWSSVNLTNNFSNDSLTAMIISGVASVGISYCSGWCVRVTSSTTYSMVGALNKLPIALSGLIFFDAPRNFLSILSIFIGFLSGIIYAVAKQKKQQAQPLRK
Briefly: cell-based or functional assay.

As a reminder, the IC50 is the point on the concentration scale where inhibition reaches its midpoint.

T1 sequence (P40107 whole entry N221A): as the sequence (P40107 whole entry N220A) above, with A220N, N221A counted along it
T8 sequence (P40107 whole entry S266A): as the sequence (P40107 whole entry N220A) above, with A220N, S266A counted along it

As for `Nc1ncnc2c1ncn2[C@@H]1O[C@H](COP(=O)(O)O)[C@@H](O)[C@H]1O` [AMP], the IC50 with Vrg4 wild type (WT) was 50 µM; on Vrg4 N221A variant it was 27 µM. The “affinity compared with WT” value at Vrg4 N220A variant (N220A variant, IC50 analysis, in words) is “markedly reduced”.

With `Nc1nc2c(ncn2[C@@H]2O[C@H](COP(=O)(O)O)[C@@H](O)[C@H]2O)c(=O)[nH]1` [GMP, guanine monophosphate], the IC50 with Vrg4 wild type (WT) was 7 µM; on Vrg4 N221A variant it was 22 µM; on Vrg4 Y281F variant, 23 µM; at Vrg4 N220A variant, 12 µM. For the same molecule, the transport rate result on Vrg4 [1] (GMP:AMP antiport, 1 mM AMP inside, 20 μM GMP outside) was “slowest”. The “thermal stabilisation of the protein by ligand” value on Vrg4 K118A variant [2] is “stabilised to a similar extent as WT Vrg4”; on Vrg4 Y281A variant, “not stabilised”. Further, the “change in the IC50 compared with WT” value at Vrg4 S269A variant is reported as “did not result in any significant change”. For the same molecule, the “IC50 value for GMP transport compared with WT” value at Vrg4 S266A variant was “significant increase”.

Take `Nc1nc2c(ncn2[C@@H]2O[C@H](COP(=O)(O)OP(=O)(O)O[C@H]3O[C@H](CO)[C@@H](O)[C@H](O)[C@@H]3O)[C@@H](O)[C@H]2O)c(=O)[nH]1` [GDP-mannose]: the IC50 in the assay on Vrg4 wild type (WT) is 7.6 µM. The transport rate result at Vrg4 [1] (GDP-mannose:GDP-mannose antiport (transported against itself), 0.5 mM inside, 20 μM outside) is recorded as “fastest”. The transport efficiency result at Vrg4 [3] was “more efficient”. The “change in the IC50 compared with WT” value at Vrg4 S269A variant was “did not result in any significant change”. Also, the “affinity of the variant compared with wild type” value at Vrg4 Y281F variant (Y281F variant, IC50 analysis, in words) is recorded as “remains the same as wild type”. For the same molecule, the “affinity compared with WT” value at Vrg4 S266A variant (IC50 analysis) is given as “only slightly reduced”.

B1: Vrg4, GDP-mannose transporter from Saccharomyces cerevisiae (wild type) (natural protein)
chain: MSELKTGHAGHNPWASVANSGPISILSYCGSSILMTVTNKFVVNLKDFNMNFVMLFVQSLVCTITLIILRILGYAKFRSLNKTDAKNWFPISFLLVLMIYTSSKALQYLAVPIYTIFKNLTIILIAYGEVLFFGGSVTSMELSSFLLMVLSSVVATWGDQQAVAAKAASLAEGAAGAVASFNPGYFWMFTNCITSALFVLIMRKRIKLTNFKDFDTMFYNNVLALPILLLFSFCVEDWSSVNLTNNFSNDSLTAMIISGVASVGISYCSGWCVRVTSSTTYSMVGALNKLPIALSGLIFFDAPRNFLSILSIFIGFLSGIIYAVAKQKKQQAQPLRK
As to B1, the “dominant negative assay: transport of 3H-GMP into liposomes reconstituted with equimolar WT and K118A (also at 75 and 25% WT), relative to WT alone” value with Vrg4 K118A variant [4] was approximately 75%.
